{"source": "patent US11925650B2", "about": "“Antibacterial chemical compound, its manufacturing method and its use thereof” (National Taiwan University, priority 2022, dated 2024)", "key": {"[1]": {"test_system": "S. Typhimurium 14028", "experiment": "Anti-intracellular Salmonella activity in infected RAW264.7 cells (HCA)", "assay_type": "cell-based, Salmonella Typhimurium"}, "[2]": {"test_system": "ROS levels in infected macrophages", "experiment": "ROS production in Salmonella-infected RAW264.7 cells (H2DCFDA)", "assay_type": "cell-based", "conditions": "1 hour; SW14 at concentrations up to 8 μM", "procedure": "FIG. 10. […] The viabilities of intracellular Salmonella in RAW264.7 cells treated with SW14 with/without the ROS scavengers N-acetyl-cysteine (NAC; 10 mM) or glutathione (GSH; 10 mM) are assessed using HCA. […] Salmonella-infected RAW264.7 cells are loaded with 25 μM H2DCFDA for 45 min followed by treatment with SW14 or PMA at various concentrations. […] S. Typhimurium ATCC 14028 is treated with H2O2 alone or in combination with SW14 (0.5 μM) in (C) LB or (D) LPM for 1 hour followed by evaluation by the CFU assay to determine bacterial viability."}, "[3]": {"test_system": "multidrug-resistant S. typhimurium NL08.10 and 0911R", "conditions": "SW14 0.3-10 μM with gentamicin, 24 h", "procedure": "(§1) FIG. 5. RAW264.7 cells infected with (A) multidrug-resistant strains of S. Typhimurium ATCC 14028, NL08., and 100911R or (B) ciprofloxacin-resistant strains of S. typhimurium ATCC 14028, SA10, and SB10 followed by treatment with 0, 0.3, 1, 3, and 10 μM of SW14 combined with […] gentamicin for 24 h. The relative numbers of intracellular bacteria were determined using HCA and the results are expressed as relative fluorescence units (RFU)."}, "[4]": {"test_system": "intracellular Salmonella in Atg7 knockdown RAW264.7 cells", "experiment": "Intracellular bacterial survival in RAW264.7 cells with Atg7 knockdown (HCA)", "assay_type": "cell-based, S. typhimurium", "conditions": "shRNA Atg7 knockdown RAW264.7 cells, SW14 0.3 and 1 μM, 24 hours", "excerpt": "FIG. 8. RAW264.7 cells transfected with a plasmid to express shRNA targeting Atg7 (shATG7). The levels of the Atg7 protein in the stable transfectants as determined by immunoblotting. Bands for Atg7 were quantified by densitometry and normalized to those of β-actin. Percentages represent the relative expression levels of Atg7 in the shATG7 transfectants compared to the vector transfectants.\nFIG. 9. Intracellular bacterial survival in SW14-treated RAW264.7 cells with shRNA-mediated knockdown of Atg7 expression. RAW264.7 cells were transfected with the empty vector (Vec) and infected with S. typhimurium followed by treatment with 0, 0.3, and 1 μM of SW14 and […] gentamicin for 24 hours. The numbers of surviving intracellular bacteria are determined by HCA and the results are expressed as a percentage of the control group. Data shown are the means; error bars represent the SD (n=3). ns: non-significant, P>0.05; *P<0.05 for the differences between the drug-treated groups and their respective control groups."}, "[5]": {"test_system": "intracellular Salmonella in RAW264.7 cells", "experiment": "Intracellular bacteria survival, colony-forming unit assay", "conditions": "sub-micromolar concentrations, gentamicin 20 mg/L, 24 h", "quoted_text": "The intracellular bacteria survival was assessed using HCA and a CFU assay, and the data are expressed as a percentage relative to the untreated control and are presented as the mean±SD (n=3 per group)."}, "[6]": {"test_system": "S. Typhimurium within macrophages", "experiment": "Intracellular Salmonella viability with ROS scavengers (HCA)", "assay_type": "cell-based, Salmonella Typhimurium", "conditions": "NAC 10 mM or GSH 10 mM", "procedure": "(§2) FIG. 10. SW14 sensitizing outer membrane-compromised S. typhimurium to oxidative stress. (A) ROS scavengers reversed the suppressive effects of SW14 on intracellular S. typhimurium. The viabilities of intracellular Salmonella in RAW264.7 cells treated with SW14 with/without the ROS scavengers N-acetyl-cysteine (NAC; 10 mM) or glutathione (GSH; 10 mM) are assessed using HCA. […] Salmonella-infected RAW264.7 cells are loaded with 25 μM H2DCFDA for 45 min followed by treatment with SW14 or PMA at various concentrations. […] S. Typhimurium ATCC 14028 is treated with H2O2 alone or in combination with SW14 (0.5 μM) in (C) LB or (D) LPM for 1 hour followed by evaluation by the CFU assay to determine bacterial viability.\nOxidative stress is another innate defense system in host cells that controls intracellular Salmonella infection. In FIG. 10(A), the suppressive effects of SW14 against S. Typhimurium within macrophages are reversed in the presence of two ROS scavengers, N-acetyl cysteine (NAC) and glutathione (GSH)."}, "[7]": {"test_system": "S. Typhimurium ATCC 14028", "experiment": "Bacterial susceptibility to H2O2 (CFU assay)", "assay_type": "cell-based, Salmonella Typhimurium", "conditions": "1 hour", "procedure": "as §2\nNext, the effects of SW14 on bacterial resistance to ROS are investigated."}, "[8]": {"test_system": "intracellular Salmonella in RAW264.7 cells", "experiment": "Intracellular Salmonella viability with autophagy inhibitor 3-MA (HCA)", "assay_type": "cell-based, S. typhimurium", "procedure": "FIG. 7. Infected RAW264.7 cells treated with 10 mM of 3-MA for 1 h followed by 0.5 μM of SW14 or mock (DMSO) treatment for 24 hours.\nAutophagy was originally characterized as a cellular response to stress, but has been considered to be a defense mechanism to combat host cell infection by intracellular Salmonella. Therefore, to evaluated the role of autophagy in SW14's anti-intracellular Salmonella activity, infected cells are treated with 3-MA, an autophagy inhibitor to block cellular autophagy then followed by treatment with SW14 for 24 h. […] Compared to mock-treated cells, the viability of intracellular Salmonella in cells treated with SW14 or the combination of 3-MA and SW14 were 45% and 36.8%, respectively."}, "[9]": {"test_system": "intracellular Salmonella in RAW264.7 cells", "experiment": "Intracellular Salmonella with cefixime or ciprofloxacin alone or combined with SW14 (HCA)", "assay_type": "cell-based", "conditions": "0.5 μM SW14 combined with CFM or CIP, 24 hours", "procedure": "FIG. 4. Salmonella-infected RAW264.7 cells treated with (A) 0.25, 0.5, 1, 2, and 4 mg/L of cefixime (CFM) and (B) 0.03, 0.06, 0.125, 0.25, and 0.5 mg/L of ciprofloxacin (CIP) alone or in combination with 0.5 μM SW14. After 24 hours, the relative numbers of intracellular bacteria were determined using HCA and the results are expressed as relative fluorescence units (RFU)."}, "[10]": {"test_system": "RAW264.7", "experiment": "Cytotoxicity in RAW264.7 cells (HCA, MTT cell viability assay)", "assay_type": "cell-based", "conditions": "Mus musculus, RAW264.7, read-out: IC50 (μM) RAW264.7", "quoted_text": "The cell viability was evaluated using HCA and an MTT cell viability assay, and the data are expressed as a percentage relative to the untreated control and are presented as the mean±SD (n=3 per group)."}, "[11]": {"test_system": "ciprofloxacin-resistant strain SA10 and SB10", "conditions": "SA10 and SB10, SW14 0.3-10 μM with gentamicin, 24 h", "procedure": "as §1\nThen extended the investigation to S. typhimurium isolates with resistance to ciprofloxacin."}, "[12]": {"test_system": "S. typhimurium", "experiment": "Bacterial growth in medium (OD600)", "assay_type": "cell-based", "conditions": "LB medium and macrophage culture medium, concentrations up to 64 μM, 24 hours", "procedure": "FIG. 6. The growth of S. typhimurium in LB medium, cell culture medium (CCM), or LPM medium containing 0, 0.5, and 64 μM of SW14 monitored by measuring the OD600 of each bacterial culture at designated times for a total of 24 h."}}, "note": "Read-outs that look alike come from different tables or passages of the source."}
{"smiles": "Clc1ccc2c(c1)C(NCCN1CCNCC1)=Nc1ccccc1O2", "note": "[SW14, 2-chloro-N-(2-(piperazin-1-yl)ethyl)dibenzo[b,f][1,4]oxazepin-11-amine]", "values": [{"measurement": "Selectivity ratio (IC50/EC50)", "setting": "[1]; IC50 RAW264.7 / EC50 S. Typhimurium 14028", "result": 80.6}, {"measurement": "EC50", "setting": "[1]; Salmonella enterica, TYPHIMURIUM, RAW264.7, read-out: EC50 (μM) S. Typhimurium 14028, intracellular Salmonella in infected RAW264.7 cells", "result": 0.5, "unit": "µM"}, {"measurement": "EC50", "setting": "[1]; read-out: EC50 (μM) S. Typhimurium 14028, intracellular Salmonella in infected RAW264.7 cells", "result": 0.4, "unit": "µM"}, {"measurement": "ROS levels (H2DCFDA signal) in infected macrophages", "setting": "[2]", "result": "did not observe any significant change"}, {"measurement": "intracellular replication of multidrug-resistant S. typhimurium isolates", "setting": "[3]", "result": "remained susceptible"}, {"measurement": "susceptibility of intracellular Salmonella to SW14 after knockdown of Atg7", "setting": "[4]", "result": "more susceptible"}, {"measurement": "effect on viability of intracellular Salmonella (CFU assay)", "setting": "[5]", "result": "potent suppressive effect"}, {"measurement": "suppressive effects against S. Typhimurium within macrophages in presence of ROS scavengers", "setting": "[6]", "result": "reversed"}, {"measurement": "susceptibility of S. typhimurium to H2O2 after SW14 treatment, LB broth", "setting": "[7]; 0.5 μM SW14, LB broth", "result": "not in LB broth"}, {"measurement": "susceptibility of S. typhimurium to H2O2 after SW14 treatment, LPM medium", "setting": "[7]; 0.5 μM SW14, LPM medium", "result": "significantly increasing"}, {"measurement": "viability of intracellular Salmonella compared to mock-treated cells, combination of 3-MA and SW14", "setting": "[8]; 10 mM 3-MA 1 h, then 0.5 μM SW14 24 hours", "result": 36.8, "unit": "%"}, {"measurement": "viability at 0.5 µM", "setting": "[8]; Salmonella, RAW264.7, 24 h, read-out: viability of intracellular Salmonella compared to mock-treated cells", "result": 45, "unit": "%"}, {"measurement": "enhancement of antibiotic suppression of intracellular Salmonella", "setting": "[9]", "result": "can enhance the suppression caused by these antibiotics"}, {"measurement": "IC50", "setting": "[10]", "result": 28.7, "unit": "µM"}, {"measurement": "intracellular proliferation of ciprofloxacin-resistant isolates", "setting": "[11]", "result": "still highly sensitive"}, {"measurement": "inhibitory effect on growth of bacteria in medium", "setting": "[12]", "result": "did not show significant inhibitory effects"}]}
